According to PubChem BioAssay AID206 (DTP/NCI, 2004):
“And” between values parts separate entries of the source, which are not always exact repeats. Equal values may be shown once. Records with an inconclusive call do not appear.

System: nude mice, HT29 intrarenal xenograft, tumor weight T/C
Assay: NCI In Vivo Anticancer Drug Screen. Data for tumor model HT29;CX-1 Human Adenocarcinoma (MER+) (intrarenal inoculation) in NU/NU Swiss (nude) mice
Conditions: endpoint: mean tumor weight change, higher = larger tumour
How it was run: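 Endpoint measured as tumor size or survival; ratio reported is treated group over vehicle controls.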

[1] = dose: 50.0 mg/kg/injection, schedule: Q04DX004 (sc), vehicle: saline with Tween-80
[2] = dose: 100.0 mg/kg/injection, schedule: Q04DX004 (sc), vehicle: saline with Tween-80
[3] = dose: 400.0 mg/kg/injection, schedule: Q04DX004 (sc), vehicle: saline with Tween-80
[4] = dose: 150.0 mg/kg/injection, schedule: Q04DX004 (sc), vehicle: Klucel (hydroxypropylcellulose) (HPC)
[5] = dose: 300.0 mg/kg/injection, schedule: Q04DX004 (sc), vehicle: Klucel (hydroxypropylcellulose) (HPC)
[6] = dose: 600.0 mg/kg/injection, schedule: Q04DX004 (sc), vehicle: Klucel (hydroxypropylcellulose) (HPC)
[7] = dose: 100.0 mg/kg/injection, schedule: Q04DX004 (sc), vehicle: suspension in saline
[8] = dose: 200.0 mg/kg/injection, schedule: Q04DX004 (sc), vehicle: saline with Tween-80
[9] = dose: 1200.0 mg/kg/injection, schedule: Q04DX004 (sc), vehicle: Klucel (hydroxypropylcellulose) (HPC)
[10] = dose: 300.0 mg/kg/injection, schedule: Q04DX004 (sc), vehicle: saline with Tween-80
[11] = dose: 600.0 mg/kg/injection, schedule: Q04DX004 (sc), vehicle: saline with Tween-80
[12] = dose: 1200.0 mg/kg/injection, schedule: Q04DX004 (sc), vehicle: saline with Tween-80
[13] = dose: 150.0 mg/kg/injection, schedule: Q04DX004 (sc), vehicle: saline with Tween-80

With C/C(=C\c1ccccc1)[N+](=O)[O-] the T/C (dose: 50.0 mg/kg/injection, schedule: Q01DX010 (sc), vehicle: Klucel (hydroxypropylcellulose) (HPC)) was 91 % of control and the T/C (dose: 100.0 mg/kg/injection, schedule: Q01DX010 (sc), vehicle: Klucel (hydroxypropylcellulose) (HPC)) was 110 % of control.

COC1C(OC(=O)/C=C/C=C/C=C/C=C/C(=O)O)CCC2(CO2)C1C1(C)OC1CC=C(C)C (stereo not given) was tested, and the T/C (dose: 75.0 mg/kg/injection, schedule: Q04DX004 (sc), vehicle: saline) was 104 % of control, the T/C (dose: 150.0 mg/kg/injection, schedule: Q04DX004 (sc), vehicle: saline) was 96 % of control and the T/C (dose: 300.0 mg/kg/injection, schedule: Q04DX004 (sc), vehicle: saline) was 119 % of control.

For N#CC(=C1C=CC(=NO)C=C1)c1ccc(Cl)cc1, the T/C [1] was 80 % of control, the T/C [2] was 90 % of control and the T/C [3] was 113 % of control.

For CC1OC(=O)C(C(C)C)NC(=O)C(C(C)C)OC(=O)C(C(C)C)NC(=O)C(C)OC(=O)C(C(C)C)NC(=O)C(C(C)C)OC(=O)C(C(C)C)NC(=O)C(C)OC(=O)C(C(C)C)NC(=O)C(C(C)C)OC(=O)C(C(C)C)NC1=O (stereo not given), the T/C (dose: 5.0 mg/kg/injection, schedule: Q01DX010 (sc), vehicle: saline with Tween-80) was 87 % of control and 103 % of control.

In the case of O=NN(CCCl)C(=O)Oc1cc(Cl)c(Cl)cc1Cl, the T/C [4] is reported as 94 % of control, the T/C [5] is reported as 83 % of control and the T/C [6] is reported as 92 % of control.

For O=NN(CCCl)C(=O)NCCO, the T/C (dose: 12.5 mg/kg/injection, schedule: Q04DX004 (sc), vehicle: water) was 81 % of control.

In the case of N=C(N)SCc1cccc2c(=O)cc(-c3ccccc3)oc12, the T/C (dose: 150.0 mg/kg/injection, schedule: Q04DX004 (sc), vehicle: suspension in saline) is reported as 110 % of control, the T/C (dose: 300.0 mg/kg/injection, schedule: Q04DX004 (sc), vehicle: suspension in saline) is reported as 113 % of control and the T/C (dose: 600.0 mg/kg/injection, schedule: Q04DX004 (sc), vehicle: suspension in saline) is reported as 106 % of control. The T/C (dose: 1200.0 mg/kg/injection, schedule: Q04DX004 (sc), vehicle: suspension in saline) was 69 % of control.

In the case of O=C(CC(=O)C(F)(F)F)c1csc2ccccc12, the T/C [4] is reported as 116 % of control, the T/C [5] is reported as 73 % of control and the T/C [6] is reported as 87 % of control.

In the case of Cc1cn(C2CC(F)C(CO)O2)c(=O)[nH]c1=O (stereo not given), the T/C [7] is reported as 65 % of control, the T/C (dose: 200.0 mg/kg/injection, schedule: Q04DX004 (sc), vehicle: suspension in saline) is reported as 60 % of control and the T/C (dose: 400.0 mg/kg/injection, schedule: Q04DX004 (sc), vehicle: suspension in saline) is reported as 117 % of control. The T/C (dose: 800.0 mg/kg/injection, schedule: Q04DX004 (sc), vehicle: suspension in saline) was 74 % of control.

For CC1=C[S+](c2ccccc2)c2cccc3cc4ccccc4c1c23 (stereo not given), the T/C (dose: 8.0 mg/kg/injection, schedule: Q04DX004 (sc), vehicle: saline with Tween-80) was 45 % of control and the T/C (dose: 16.0 mg/kg/injection, schedule: Q04DX004 (sc), vehicle: saline with Tween-80) was 66 % of control.

CCN(CC)CCC(=O)c1ccccc1 was tested, and the T/C [1] was 65 % of control, the T/C [2] was 60 % of control and the T/C [8] was 50 % of control. For the same molecule, the T/C [3] was 77 % of control.

For Cc1cc(NCCCCCCCNc2cc(C)nc3cc(N)ccc23)c2ccc(N)cc2n1, the T/C (dose: 12.5 mg/kg/injection, schedule: Q04DX004 (sc), vehicle: saline with Tween-80) was 32 % of control, the T/C (dose: 25.0 mg/kg/injection, schedule: Q04DX004 (sc), vehicle: saline with Tween-80) was 56 % of control and the T/C [1] was 51 % of control.

C/C(=N\NC(N)=O)c1cccc(/C(C)=N/NC(N)=O)n1 was tested, and the T/C [8] was 106 % of control and the T/C [3] was 108 % of control.

[O-][n+]1c(CN2CCCCC2)nc2cccc3c2c1-c1ccccc1-3 was tested, and the T/C [4] was 274 % of control, the T/C [5] was 150 % of control and the T/C [6] was 239 % of control. The T/C [9] was 303 % of control.

In the case of CCCCCCCCCCCCCC#CC(=O)O, the T/C (dose: 37.5 mg/kg/injection, schedule: Q04DX004 (sc), vehicle: saline with Tween-80) is reported as 117 % of control and the T/C [10] is reported as 104 % of control.

In the case of C=C(NC(=O)C(=C)NC(=O)c1csc(C2=NC3c4csc(n4)C4NC(=O)c5csc(n5)C(C(C)(O)C(C)O)NC(=O)C5CSC(=N5)/C(=C/C)NC(=O)C(C(C)O)NC(=O)c5csc(n5)C3(CC2)NC(=O)C(C)NC(=O)C(=C)NC(=O)C(=C)NC(=O)C(C(C)C)NC2C=Cc3c(C(C)O)cc(nc3C2O)C(=O)OC4C)n1)C(N)=O (stereo not given), the T/C (dose: 125.0 mg/kg/injection, schedule: Q04DX004 (sc), vehicle: suspension in saline) is reported as 789 % of control, the T/C (dose: 250.0 mg/kg/injection, schedule: Q04DX004 (sc), vehicle: suspension in saline) is reported as 419 % of control and the T/C (dose: 500.0 mg/kg/injection, schedule: Q04DX004 (sc), vehicle: saline) is reported as 59 % of control. For the same molecule, the T/C (dose: 750.0 mg/kg/injection, schedule: Q04DX004 (sc), vehicle: saline) was 97 % of control, the T/C (dose: 750.0 mg/kg/injection, schedule: Q04DX004 (sc), vehicle: suspension in saline) was 73 % of control and the T/C (dose: 1000.0 mg/kg/injection, schedule: Q04DX004 (sc), vehicle: saline) was 65 % of control. For the same molecule, the T/C (dose: 1250.0 mg/kg/injection, schedule: Q04DX004 (sc), vehicle: saline) was 91 % of control and the T/C (dose: 1250.0 mg/kg/injection, schedule: Q04DX004 (sc), vehicle: suspension in saline) was 82 % of control.

Cc1ccc(C2NC(=O)c3ccccc3N2)s1 (stereo not given) was tested, and the T/C [6] was 101 % of control, the T/C [9] was 95 % of control and the T/C (dose: 2400.0 mg/kg/injection, schedule: Q04DX004 (sc), vehicle: Klucel (hydroxypropylcellulose) (HPC)) was 96 % of control. The T/C (dose: 4800.0 mg/kg/injection, schedule: Q04DX004 (sc), vehicle: Klucel (hydroxypropylcellulose) (HPC)) was 92 % of control.

Cc1cc2nc3c(=O)[nH]c(=O)nc-3n(CC(O)C(O)C(O)C(O)CO)c2cc1C (stereo not given) was tested, and the T/C [11] was 94 % of control, the T/C [12] was 78 % of control and the T/C (dose: 2400.0 mg/kg/injection, schedule: Q04DX004 (sc), vehicle: saline with Tween-80) was 90 % of control.

With O=C1c2ccccc2C(=O)c2c(NCCNCCO)ccc(O)c21 the T/C (dose: 25.0 mg/kg/injection, schedule: Q04DX004 (sc), vehicle: suspension in saline) was 74 % of control, the T/C (dose: 50.0 mg/kg/injection, schedule: Q04DX004 (sc), vehicle: suspension in saline) was 73 % of control and the T/C [7] was 111 % of control.

CN(C)CCCNc1c2ccccc2nc2cccc([N+](=O)[O-])c12 was tested, and the T/C (dose: 0.37 mg/kg/injection, schedule: Q04DX004 (sc), vehicle: saline) was 226 % of control.

With CCCCCC#CC1OC12CCCCC2 (stereo not given) the T/C [13] was 74 % of control, the T/C [10] was 62 % of control and the T/C [11] was 77 % of control. For the same molecule, the T/C [12] was 100 % of control.

For Nc1ccc(Cl)cc1N, the T/C (dose: 450.0 mg/kg/injection, schedule: Q04DX004 (sc), vehicle: saline with Tween-80) was 41 % of control, the T/C (dose: 900.0 mg/kg/injection, schedule: Q04DX004 (sc), vehicle: saline with Tween-80) was 78 % of control and the T/C (dose: 1800.0 mg/kg/injection, schedule: Q04DX004 (sc), vehicle: saline with Tween-80) was 30 % of control.

For Brc1ccc(C[N+]23CN4CN(CN(C4)C2)C3)cc1, the T/C [13] was 69 % of control and the T/C [10] was 101 % of control.

For C[C@]12CCC(=O)C=C1CC[C@@H]1[C@@H]2C(=O)C[C@@]2(C)[C@H]1CC[C@]2(O)C(=O)CO, the T/C [5] was 55 % of control, the T/C [6] was 42 % of control and the T/C [9] was 42 % of control.

For Cc1cc(NCCCN(C)C)c2ccc3c(ccc4c(NCCCN(C)C)cc(C)nc43)c2n1, the T/C (dose: 9.38 mg/kg/injection, schedule: Q04DX004 (sc), vehicle: saline with Tween-80) was 53 % of control.

For O=C1N=C(Oc2ccccc2)SC1=O, the T/C [1] was 40 % of control, the T/C [2] was 76 % of control and the T/C [8] was 59 % of control. For the same molecule, the T/C [3] was 78 % of control.

For CCOC(=O)C(CC(C)C)NC(=O)C(N)Cc1ccc(N(CCCl)CCCl)cc1 (stereo not given), the T/C (dose: 7.5 mg/kg/injection, schedule: Q04DX004 (sc), vehicle: water) was 81 % of control, the T/C (dose: 15.0 mg/kg/injection, schedule: Q04DX004 (sc), vehicle: water) was 105 % of control and 118 % of control and the T/C (dose: 30.0 mg/kg/injection, schedule: Q04DX004 (sc), vehicle: water) was 82 % of control and 86 % of control. For the same molecule, the T/C (dose: 60.0 mg/kg/injection, schedule: Q04DX004 (sc), vehicle: water) was 7 % of control.

In the case of OC1OC2COC(c3ccccc3)OC2C(O)C1O (stereo not given), the T/C (dose: 200.0 mg/kg/injection, schedule: Q04DX004 (sc), vehicle: water) is reported as 94 % of control, the T/C (dose: 400.0 mg/kg/injection, schedule: Q04DX004 (sc), vehicle: water) is reported as 118 % of control and the T/C (dose: 800.0 mg/kg/injection, schedule: Q04DX004 (sc), vehicle: water) is reported as 87 % of control. The T/C (dose: 1600.0 mg/kg/injection, schedule: Q04DX004 (sc), vehicle: water) was 118 % of control.
